Results reported in the supplement of paper PMC4862054.

Experiments:
Details in all cases: incubation time: 72 h
MDA-MB-231 [1] = assay: drug sensitivity score (DSS), CellTiter-Glo (DSS (AUC-based score)); higher = stronger drug effect (viability inhibition or cytotoxicity); extreme values may be limits of the assay
Procedure, shortened: (§1)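 Each compound occupied 5 concentrations in 10-fold steps over its own 10,000-fold range in 384-well plates, into which breast cancer cell lines were seeded as 20 µl suspension. Following 72 h of incubation, CellTox Green fluorescence (485/520 nm) was measured, and CellTiter-Glo luminescence was measured after 10 min at room temperature. Plates were individually normalised to 0.1 % DMSO and a positive kill control. From the area under the fitted dose-response curve, a drug sensitivity score was calculated.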

HCC1937 [2] = assay: as above
Procedure, shortened: as §1

BT-549 [3] = assay: as above
Procedure, shortened: as §1

SK-BR-3 [4] = assay: as above
Procedure, shortened: as §1

CAL-51 = assay: normalised viability (% of control), CellTiter-Blue; higher = more viable cells (about 100 = DMSO control)
Procedure: (§2)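 DSRT, CellTiter-Blue viability, 72 h incubation. Signal is normalised to DMSO and benzethonium chloride controls. Value is the normalised response at dose 3.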

MFM-223 = assay: as above
Procedure: as §2

HCC1143 = assay: as above
Procedure: as §2

HDQ-P1 = assay: as above
Procedure: as §2

MDA-MB-231 [5] = assay: as above
Procedure: as §2

HCC1937 [6] = assay: as above
Procedure: as §2

MDA-MB-453 = assay: as above
Procedure: as §2

MDA-MB-468 = assay: as above
Procedure: as §2

BT-549 [7] = assay: as above
Procedure: as §2

SK-BR-3 [8] = assay: as above
Procedure: as §2

CAL-148 = assay: as above
Procedure: as §2

DU-4475 = assay: as above
Procedure: as §2

BT-474 = assay: as above
Procedure: as §2

Hs578T = assay: as above
Procedure: as §2

CAL-85-1 = assay: as above
Procedure: as §2

HCC1599 = assay: as above
Procedure: as §2

CAL-120 = assay: as above
Procedure: as §2

MDA-MB-436 = assay: as above
Procedure: as §2

| Compound | drug sensitivity score (MDA-MB-231 [1]) | drug sensitivity score (HCC1937 [2]) | drug sensitivity score (BT-549 [3]) | drug sensitivity score (SK-BR-3 [4]) | normalised viability (CAL-51; 1 nM) [%] | normalised viability (MFM-223; 10 nM) [%] | normalised viability (HCC1143; 10 nM) [%] | normalised viability (HDQ-P1; 1 nM) [%] | normalised viability (MDA-MB-231 [5]; 10 nM) [%] | normalised viability (HCC1937 [6]; 10 nM) [%] | normalised viability (MDA-MB-453; 1 nM) [%] | normalised viability (MDA-MB-468; 10 nM) [%] | normalised viability (BT-549 [7]; 10 nM) [%] | normalised viability (SK-BR-3 [8]; 10 nM) [%] | normalised viability (CAL-148; 1 nM) [%] | normalised viability (DU-4475; 1 nM) [%] | normalised viability (BT-474; 10 nM) [%] | normalised viability (Hs578T; 10 nM) [%] | normalised viability (CAL-85-1; 1 nM) [%] | normalised viability (HCC1599; 10 nM) [%] | normalised viability (CAL-120; 10 nM) [%] | normalised viability (MDA-MB-436; 10 nM) [%] | normalised viability (CAL-51; 10 nM) [%] | normalised viability (MFM-223; 100 nM) [%] | normalised viability (HCC1143; 100 nM) [%] | normalised viability (HDQ-P1; 10 nM) [%] | normalised viability (MDA-MB-231 [5]; 100 nM) [%] | normalised viability (HCC1937 [6]; 100 nM) [%] | normalised viability (MDA-MB-453; 10 nM) [%] | normalised viability (MDA-MB-468; 100 nM) [%] | normalised viability (BT-549 [7]; 100 nM) [%] | normalised viability (SK-BR-3 [8]; 100 nM) [%] | normalised viability (CAL-148; 10 nM) [%] | normalised viability (DU-4475; 10 nM) [%] | normalised viability (BT-474; 100 nM) [%] | normalised viability (Hs578T; 100 nM) [%] | normalised viability (CAL-85-1; 10 nM) [%] | normalised viability (HCC1599; 100 nM) [%] | normalised viability (CAL-120; 100 nM) [%] | normalised viability (MDA-MB-436; 100 nM) [%] |
| --- | --- | --- | --- | --- | --- | --- | --- | --- | --- | --- | --- | --- | --- | --- | --- | --- | --- | --- | --- | --- | --- | --- | --- | --- | --- | --- | --- | --- | --- | --- | --- | --- | --- | --- | --- | --- | --- | --- | --- | --- |
| CC(=O)O[C@H]1C(=O)[C@@]2(C)[C@H]([C@H](OC(=O)c3ccccc3)[C@]3(O)C[C@H](OC(=O)[C@H](O)[C@@H](NC(=O)c4ccccc4)c4ccccc4)C(C)=C1C3(C)C)[C@]1(OC(C)=O)CO[C@@H]1C[C@@H]2O [Paclitaxel] | 17.3 | 10.5 | 24.3 | 33.6 | 91.8 | 55.8 | 54.6 | 60.8 | 35.7 | 36.4 | 107 | 52.1 | 31.9 | 25.9 | 103 | 97.6 | 54.3 | 26 | 103 | 104 | 36.9 | 52.2 |  |  |  |  |  |  |  |  |  |  |  |  |  |  |  |  |  |  |
| COc1c(C)cnc(Cn2cnc3c(Cl)nc(N)nc32)c1C [BIIB021] | 13.4 | 16.3 | 15.7 | 21.9 |  |  |  |  |  |  |  |  |  |  |  |  |  |  |  |  |  |  | 100 | 53.9 | 58.8 | 114 | 61.4 | 59.6 | 76.4 | 68.9 | 52.6 | 23.9 | 82.3 | 82.6 | 59.4 | 64.7 | 87.5 | 101 | 27.6 | 89.8 |
| O=C(c1ccc(OCCN2CCCCC2)cc1)c1c(-c2ccc(O)cc2)sc2cc(O)ccc12 [Raloxifene] | 0 | 0 | 0 | 0 |  |  |  |  |  |  |  |  |  |  |  |  |  |  |  |  |  |  | 99.6 | 84.3 | 109 | 90.2 | 89.3 | 110 | 107 | 105 | 87.2 | 115 | 100 | 105 | 107 | 104 | 101 | 104 | 102 | 107 |
| O=c1[nH]cc(F)c(=O)[nH]1 [Fluorouracil] | 0 | 0 | 0 | 1.79 |  |  |  |  |  |  |  |  |  |  |  |  |  |  |  |  |  |  | 105 | 96.5 | 97.7 | 103 | 106 | 104 | 116 | 104 | 107 | 87 | 108 | 97 | 116 | 115 | 94.7 | 102 | 111 | 89.1 |
| COc1ncc(-c2ccc3nccc(-c4ccnnc4)c3c2)cc1NS(=O)(=O)c1ccc(F)cc1F | 10.3 | 10.6 | 16.8 | 20.6 | 85.7 | 53.1 | 68.2 | 97.9 | 80 | 78.5 | 89.3 | 86.2 | 95.9 | 32.7 | 111 | 88.1 | 64.7 | 76.8 | 88.8 | 57.1 | 60.2 | 83 |  |  |  |  |  |  |  |  |  |  |  |  |  |  |  |  |  |  |
| Cn1cnc2c(F)c(Nc3ccc(Br)cc3F)c(C(=O)NOCCO)cc21 [MEK-162] | 0 | 0 | 0 | 0 | 111 | 87.9 | 80.6 | 114 | 92.5 | 95.1 | 113 | 98 | 107 | 83.4 | 91.5 | 97.6 | 114 | 81.5 | 98.1 | 111 | 92.2 | 126 |  |  |  |  |  |  |  |  |  |  |  |  |  |  |  |  |  |  |
| CN1CCN(c2ccc3nc(-c4c(N)c5c(F)cccc5[nH]c4=O)[nH]c3c2)CC1 [Dovitinib] | 0 | 0 | 0 | 0 |  |  |  |  |  |  |  |  |  |  |  |  |  |  |  |  |  |  | 111 | 80.2 | 84.5 | 95.7 | 80.2 | 95.6 | 87.7 | 86.9 | 90.5 | 101 | 94.7 | 99.8 | 115 | 87 | 89.2 | 88.2 | 86.4 | 99.7 |
| CCCC(CCC)C(=O)O [Valproic acid] | 0 | 0 | 0 | 0 |  |  |  |  |  |  |  |  |  |  |  |  |  |  |  |  |  |  | 97.8 | 94.9 | 94.9 | 139 | 110 | 98.8 | 94.4 | 115 | 92 | 95 | 106 | 93.7 | 113 | 111 | 95.7 | 102 | 110 | 95.4 |
